Measurements from publication PMC6941952, “A homogeneous bioluminescent immunoassay to probe cellular signaling pathway regulation” (Communications Biology, 2020).
“And” between values parts separate entries of the source, which are not always exact repeats. Equal values may be shown once. Blank lines part the entries; values can stand above or below the molecule they belong to.

Columns and labels:
[1] = tested on: NF-κB p65 Phospho-Ser536; test: NanoBiT cell-based immunoassay, phosphorylated p65 in MCF-7 cells; parameters: species or system human; conditions: for P-p65, Average: background subtracted, average of replicates; for P-p65, Raw data / P-p65, Subtract reagent background: single replicates
Protocol: (§1) Prior to NanoBiT Cell-Based Immunoassay, 50,000 cells were seeded in 160 µl of complete growth media per well of a 96-well plate and incubated overnight. The cells were checked under microscope and it was determined that 50,000 cells per well in 96-well plate is under 90% confluency for all cells tested. If necessary, the cell culture media were replaced with serum-free media after the cells were stably adherent on the plate and incubated overnight. To treat cells with activators or inhibitors, medium was changed to 30 µl of medium containing inhibitors. If activation of a specific pathway is needed, the cells were stimulated with 10 µl of medium containing activators. To lyse the cells, 10 µl of lysis buffer containing 0.1% digitonin diluted in 1X immunoassay buffer with protease and phosphatase inhibitors was added and the plates were mixed vigorously for 20 min. Then, 50 µl of an antibody mix containing two primary antibodies against the target protein and NanoBiT detecting antibodies (0.3 µl each per well), diluted in 1X immunoassay buffer was added to the lysates. The plates were incubated at 23 °C for 90 min, followed by the addition of 25 µl of Nano-Glo® reagent consisting of Nano-Glo® Luciferase Assay Substrate mixed with 1X immunoassay buffer. Luminescence was measured using a plate-reading luminometer.
(§2) Single dose or dose response inhibitor treatments were performed prior to activation of the pathways as follows. For IκBα, the cells were treated in 30 µl medium with IKK16 or MG132 for 60 min before the addition of 10 µl of DMEM containing appropriate concentration of TNFα. To measure phosphorylation of AKT or STAT3, the corresponding NanoBiT immunoassays were developed with MCF-7 or A431 cells, respectively, according the same scheme used to develop the IκBα assay using the primary antibodies for AKT and STAT3 described in the reagents section. For the AKT assay, MCF-7 cells were incubated overnight in phenol-red free DMEM medium (Gibco #21063-029) without serum. Treatment with LY294002 was performed in 30 µl medium and cells were incubated for 60 min before the addition of 1 µM Insulin. To measure STAT3 phosphorylation, A431 cells were incubated overnight in DMEM medium without serum. […] After addition of the stimulators, the cells were incubated for additional times as follows. IκBα phosphorylation and degradation analyses required both time courses and single time points as described in figures. […] The NanoBiT immunoassay protocol was followed as described above.
(§3) All 96-well assay plates were read using a GloMax® 96 Microplate Luminometer from Promega. The instrument was set to 0.5 s integration time. In order to obtain net change of signal, the reagent background values (signal from the well containing all reagent except primary antibodies) were subtracted from the sample values. To plot and analyze the data, Microsoft Excel and GraphPad Prism® Software were used. IC50 values were determined by using a nonlinear regression fit to a sigmoidal dose response (variable slope).

[2] = tested on: total IκBα; test: NanoBiT cell-based immunoassay, total IκBα in human breast tumor epithelial cells; conditions: for IkB degradation (% compared to no IKK16), Average / IkB degradation (% compared to no IKK16) / Non-Treated/Treated / Raw data / Subtract reagent background: Breast tumor cells, TNF; for IkB degradation (% compared to no IKK16), Average: average of replicates; for IkB degradation (% compared to no IKK16) / Non-Treated/Treated / Raw data / Subtract reagent background: single replicates; for Total IkB Average / Total IkB Raw data / Total IkB Subtract reagent background: Breast Tumor Cells; for Total IkB Average: background subtracted; for Total IkB Raw data / Total IkB Subtract reagent background: listed as TNF
Protocol: All cell lines used are from ATCC. […] Human Primary Mammary Epithelial Cells (#H-6035), Human Breast Tumor Epithelial Cells (#HC-6035), Complete Human Epithelial Cell Medium (#H6621), and Gelatin-Based Coating Solution (#H6950) were purchased from Cell Biologics. The cells were cultured according to the manufacturer’s procedure. All cells were grown at 37 °C in a 5% CO2 humidified incubator and passaged before reaching 80% cell confluency. Prior to each experiment, cells were counted by combining 30 µl of cell suspension with 30 µl of trypan blue. After gentle pipetting up and down to mix the cells and the dye, the cell number was determined using Bio-Rad TC 20 cell counter.
as §1, §2, §3

- IC50 ([2]; human primary breast tumor epithelial cells, pretreated 1 h, then TNFα 50 ng per ml 30 min, read-out: IC50, inhibition of TNFα induced degradation of IκBα): 1820 nM
Molecule: O=C(c1ccc(Nc2nccc(-c3cc4ccccc4s3)n2)cc1)N1CCC(N2CCCC2)CC1 [IKK16]
- TNFα-increased phosphorylation of p65 on serine 536 ([1]; MCF-7 cells, 10 µM 1 h, TNFα 50 ng per ml 10 min): inhibited
- P-p65, Average ([1]; TNF + Ikk16): 4467
- P-p65, Raw data ([1]; TNF + Ikk16): 22920 and 23320 and 23680
- P-p65, Subtract reagent background ([1]; TNF + Ikk16): 4080 and 4480 and 4840
- P-p65, Average ([1]; substance alone): 3920
- P-p65, Raw data ([1]; substance alone): 22430 and 21780 and 21730
- P-p65, Subtract reagent background ([1]; substance alone): 4370 and 3720 and 3670
- IkB degradation (% compared to no IKK16), Average ([2]; IKK16 0.000762939 uM): 97.6%
- IkB degradation (% compared to no IKK16) ([2]; IKK16 0.000762939 uM): 92% and 104% and 97%
- Non-Treated/Treated ([2]; IKK16 0.000762939 uM): 3.423 and 4.061 and 3.878
- Raw data ([2]; IKK16 0.000762939 uM): 10940 and 10560 and 10750
- Subtract reagent background ([2]; IKK16 0.000762939 uM): 5493 and 5113 and 5303
- IkB degradation (% compared to no IKK16), Average ([2]; IKK16 0.00305176 uM): 98.3%
- IkB degradation (% compared to no IKK16) ([2]; IKK16 0.00305176 uM): 97% and 96% and 102%
- Non-Treated/Treated ([2]; IKK16 0.00305176 uM): 3.600 and 3.739 and 4.102
- Raw data ([2]; IKK16 0.00305176 uM): 10670 and 11000 and 10460
- Subtract reagent background ([2]; IKK16 0.00305176 uM): 5223 and 5553 and 5013
- IkB degradation (% compared to no IKK16), Average ([2]; IKK16 0.012207 uM): 95.1%
- IkB degradation (% compared to no IKK16) ([2]; IKK16 0.012207 uM): 98% and 99% and 88%
- Non-Treated/Treated ([2]; IKK16 0.012207 uM): 3.656 and 3.857 and 3.531
- Raw data ([2]; IKK16 0.012207 uM): 10590 and 10830 and 11270
- Subtract reagent background ([2]; IKK16 0.012207 uM): 5143 and 5383 and 5823
- IkB degradation (% compared to no IKK16), Average ([2]; IKK16 0.0488281 uM): 99.5%
- IkB degradation (% compared to no IKK16) ([2]; IKK16 0.0488281 uM): 95% and 97% and 106%
- Non-Treated/Treated ([2]; IKK16 0.0488281 uM): 3.552 and 3.780 and 4.255
- Raw data ([2]; IKK16 0.0488281 uM): 10740 and 10940 and 10280
- Subtract reagent background ([2]; IKK16 0.0488281 uM): 5293 and 5493 and 4833
- IkB degradation (% compared to no IKK16), Average ([2]; IKK16 0.195312 uM): 94.6%
- IkB degradation (% compared to no IKK16) ([2]; IKK16 0.195312 uM): 95% and 102% and 87%
- Non-Treated/Treated ([2]; IKK16 0.195312 uM): 3.532 and 3.953 and 3.507
- Raw data ([2]; IKK16 0.195312 uM): 10770 and 10700 and 11310
- Subtract reagent background ([2]; IKK16 0.195312 uM): 5323 and 5253 and 5863
- IkB degradation (% compared to no IKK16), Average ([2]; IKK16 0.78125 uM): 86.9%
- IkB degradation (% compared to no IKK16) ([2]; IKK16 0.78125 uM): 77% and 92% and 91%
- Non-Treated/Treated ([2]; IKK16 0.78125 uM): 2.883 and 3.584 and 3.657
- Raw data ([2]; IKK16 0.78125 uM): 11970 and 11240 and 11070
- Subtract reagent background ([2]; IKK16 0.78125 uM): 6523 and 5793 and 5623
- IkB degradation (% compared to no IKK16), Average ([2]; IKK16 3.125 uM): 49.5%
- IkB degradation (% compared to no IKK16) ([2]; IKK16 3.125 uM): 48% and 52% and 49%
- Non-Treated/Treated ([2]; IKK16 3.125 uM): 1.799 and 2.002 and 1.952
- Raw data ([2]; IKK16 3.125 uM): 15900 and 15820 and 15980
- Subtract reagent background ([2]; IKK16 3.125 uM): 10453 and 10373 and 10533

Molecule: TNFα
- P-p65, Average ([1]; substance alone): 154463
- P-p65, Raw data ([1]; substance alone, listed as TNF): 167400 and 177100 and 183300
- P-p65, Subtract reagent background ([1]; substance alone, listed as TNF): 145930 and 155630 and 161830
- Total IkB Average ([2]; TNF 2 min): 21090
- Total IkB Raw data ([2]; TNF 2 min): 27000 and 28670 and 28950
- Total IkB Subtract reagent background ([2]; TNF 2 min): 21553 and 21833 and 19883
- Total IkB Average ([2]; TNF 4 min): 18310
- Total IkB Raw data ([2]; TNF 4 min): 25000 and 25490 and 25790
- Total IkB Subtract reagent background ([2]; TNF 4 min): 18373 and 18673 and 17883
- Total IkB Average ([2]; TNF 6 min): 13990
- Total IkB Raw data ([2]; TNF 6 min): 22120 and 20820 and 20380
- Total IkB Subtract reagent background ([2]; TNF 6 min): 13703 and 13263 and 15003
- Total IkB Average ([2]; TNF 8 min): 8950
- Total IkB Raw data ([2]; TNF 8 min): 16890 and 15660 and 15650
- Total IkB Subtract reagent background ([2]; TNF 8 min): 8543 and 8533 and 9773
- Total IkB Average ([2]; TNF 10 min): 6003
- Total IkB Raw data ([2]; TNF 10 min): 13590 and 12910 and 12860
- Total IkB Subtract reagent background ([2]; TNF 10 min): 5793 and 5743 and 6473
- Total IkB Average ([2]; TNF 12 min): 3767
- Total IkB Raw data ([2]; TNF 12 min): 11390 and 10770 and 10490
- Total IkB Subtract reagent background ([2]; TNF 12 min): 3653 and 3373 and 4273
- Total IkB Average ([2]; TNF 15 min): 2118
- Total IkB Raw data ([2]; TNF 15 min): 9632 and 9015 and 9057
- Total IkB Subtract reagent background ([2]; TNF 15 min): 1898 and 1940 and 2515
- Total IkB Average ([2]; TNF 30 min): 1696
- Total IkB Raw data ([2]; TNF 30 min): 8893 and 8691 and 8853
- Total IkB Subtract reagent background ([2]; TNF 30 min): 1574 and 1736 and 1776
- Total IkB Average ([2]; TNF 45 min): 4853
- Total IkB Raw data ([2]; TNF 45 min): 11970 and 11880 and 12060
- Total IkB Subtract reagent background ([2]; TNF 45 min): 4763 and 4943 and 4853
- Total IkB Average ([2]; TNF 60 min): 8867
- Total IkB Raw data ([2]; TNF 60 min): 15500 and 15850 and 16600
- Total IkB Subtract reagent background ([2]; TNF 60 min): 8733 and 9483 and 8383
